Experimental data from patent publication US12378256B2, “Heterocyclic compound” (Takeda Pharmaceutical Company Limited, priority 2017, dated 2025).
pEC50: −log10 of the molar value.

Molecular target: T1, human M1 receptor (hCHRM1) (Homo sapiens, UniProt P11229)
T1 construct: expressed in transfected cells; host or cells: CHO-K1
T1 sequence (P11229 1-460): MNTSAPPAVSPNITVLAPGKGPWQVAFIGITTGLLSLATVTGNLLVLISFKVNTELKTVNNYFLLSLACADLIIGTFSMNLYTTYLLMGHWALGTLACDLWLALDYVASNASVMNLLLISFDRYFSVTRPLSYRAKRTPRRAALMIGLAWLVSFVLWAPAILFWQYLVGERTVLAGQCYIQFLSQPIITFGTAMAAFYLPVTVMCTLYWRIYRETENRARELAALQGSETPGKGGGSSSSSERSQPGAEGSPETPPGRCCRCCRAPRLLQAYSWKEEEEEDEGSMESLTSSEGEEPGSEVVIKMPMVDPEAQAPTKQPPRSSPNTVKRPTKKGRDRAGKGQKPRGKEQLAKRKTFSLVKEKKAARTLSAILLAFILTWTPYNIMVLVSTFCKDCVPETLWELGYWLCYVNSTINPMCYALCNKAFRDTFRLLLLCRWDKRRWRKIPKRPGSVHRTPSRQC
Experiment: Measurement of M1 receptor positive allosteric modulator (M1PAM) activity, calcium fluorescence with acetylcholine at EC20
Type: cell-based
Settings: for activity (%) at 10 μM: 10 μM test compound, 100% = 1 μM acetylcholine, 0% = DMSO; for pEC50: CHO-K1 cells expressing hCHRM1, acetylcholine at EC20 (final 0.8-1.0 nM), read-out: IP value (inflection point in the concentration-dependent curve)
Procedure: Measurement of M1 Receptor Positive Allosteric Modulator (M1PAM) Activity
The activity of a test compound in the presence of acetylcholine at EC20 concentration (final concentration 0.8-1.0 nM), which affords an action corresponding to about 20% of the maximum activity, was measured as PAM activity. The method is as follows. CHO-K1 cells stably expressing a human M1 receptor (hCHRM1) were plated on a 384-well black clear bottom plate (BD Falcon) at 5,000 cells/well, and cultured in an incubator at 37° C., 5% CO2 for 1 day. The medium in the cell plate was removed, and assay buffer A containing calcium indicator (Recording medium (DOJINDO LABORATORIES), 0.1% BSA (Wako Pure Chemical Industries, Ltd.), 2.5 μg/mL Fluo-4 AM (DOJINDO LABORATORIES), 0.08% Pluronic F127 (DOJINDO LABORATORIES), 1.25 mM probenecid (DOJINDO LABORATORIES)) was added at 30 μL/well. The cells were left standing in the incubator at 37° C., 5% CO2 for 30 min, and further left standing at room temperature for 30 min. A test compound prepared by diluting with assay buffer B (HBSS (Invitrogen), 20 mM HEPES (Invitrogen), 0.1% BSA) containing 3.2-4.0 nM acetylcholine was added at 10 μL/well, and the fluorescence was measured by FDSS/μCELL (Hamamatsu Photonics K.K.) for 1 min every for 1 second. With the definition that the amount of change in the fluorescence on addition of acetylcholine (final concentration 1 μM) is 100% and that on addition of DMSO instead of a test compound is 0%, the activity (%) of the test compound was calculated, and the inflection point in the concentration-dependent curve of the test compound was calculated as IP values.

activity (%) at 10 μM [%]	pEC50	Compound
100	8.35	O=C(NC1CC(F)(F)CCC1O)c1cc(Cc2ccc(-n3cccn3)cc2)c2c(n1)CCO2 (single isomer, unassigned) [Example 27, N-(trans-5,5-difluoro-2-hydroxycyclohexyl)-7-(4-(1H-pyrazol-1-yl)benzyl)-2,3-dihydrofuro[3,2-b]pyridine-5-carboxamide]
107	8.37	O=C(N[C@@H]1CCC(F)(F)C[C@H]1O)c1cc(Cc2ccc(-n3cccn3)cc2)c2c(n1)CCO2 (single isomer, unassigned) [Example 46, N-(trans-4,4-difluoro-2-hydroxycyclohexyl)-7-(4-(1H-pyrazol-1-yl)benzyl)-2,3-dihydrofuro[3,2-b]pyridine-5-carboxamide]
104	9.06	Cn1cc(-c2ccc(C(F)c3cc(C(=O)N[C@H]4CCOC[C@@H]4O)nc4ccoc34)cn2)cn1 (single isomer, unassigned) [Example 51, 1,5-anhydro-2,3-dideoxy-3-(((7-(fluoro(6-(1-methyl-1H-pyrazol-4-yl)pyridin-3-yl)methyl)furo[3,2-b]pyridin-5-yl)carbonyl)amino)-L-threo-pentitol]
106	7.38	Cn1cc(-c2ccc(C(F)c3cc(C(=O)N[C@H]4CCOC[C@@H]4O)nc4ccoc34)cc2)nn1 (single isomer, unassigned) [Example 56, 1,5-anhydro-2,3-dideoxy-3-(((7-(fluoro(4-(1-methyl-1H-1,2,3-triazol-4-yl)phenyl)methyl)furo[3,2-b]pyridin-5-yl)carbonyl)amino)-L-threo-pentitol]
99	8.96	Cn1cc(-c2ccc(C(F)c3cc(C(=O)N[C@H]4CCCC[C@@H]4O)nc4ccoc34)cc2)nn1 (single isomer, unassigned) [Example 57]
100	7.89	O=C(N[C@H]1COCC[C@@H]1O)c1cc(Cc2ccc(-n3cccn3)cc2)c2c(n1)CCO2 [Example 3, 1,5-anhydro-2,4-dideoxy-2-(((7-(4-(1H-pyrazol-1-yl)benzyl)-2,3-dihydrofuro[3,2-b]pyridin-5-yl)carbonyl)amino)-L-threo-pentitol]
100	8.10	Cn1ccc(-c2ccc(Cc3cc(C(=O)N[C@H]4COCC[C@@H]4O)nc4c3OCC4)cc2)n1 [Example 8, 1,5-anhydro-2,4-dideoxy-2-(((7-(4-(1-methyl-1H-pyrazol-3-yl)benzyl)-2,3-dihydrofuro[3,2-b]pyridin-5-yl)carbonyl)amino)-L-threo-pentitol]
100	8.00	Cc1csc(-c2ccc(Cc3cc(C(=O)N[C@H]4CCCC[C@@H]4O)nc4c3OCC4)cc2)n1 [Example 16, N-((1S,2S)-2-hydroxycyclohexyl)-7-(4-(4-methyl-1,3-thiazol-2-yl)benzyl)-2,3-dihydrofuro[3,2-b]pyridine-5-carboxamide]
97	7.92	Cc1ncc(-c2ccc(Cc3cc(C(=O)N[C@H]4CCCC[C@@H]4O)nc4c3OCC4)cc2)s1 [Example 18, N-((1S,2S)-2-hydroxycyclohexyl)-7-(4-(2-methyl-1,3-thiazol-5-yl)benzyl)-2,3-dihydrofuro[3,2-b]pyridine-5-carboxamide]
100	8.80	Cn1cc(-c2ccc(Cc3cc(C(=O)N[C@H]4COCC[C@@H]4O)nc4ccoc34)cc2)nn1 [Example 21, 1,5-anhydro-2,4-dideoxy-2-(((7-(4-(1-methyl-1H-1,2,3-triazol-4-yl)benzyl)furo[3,2-b]pyridin-5-yl)carbonyl)amino)-L-threo-pentitol]
99	8.82	Cn1cc(-c2ccc(Cc3cc(C(=O)N[C@H]4CCCC[C@@H]4O)nc4ccoc34)cc2)nn1 [Example 23, N-((1S,2S)-2-hydroxycyclohexyl)-7-(4-(1-methyl-1H-1,2,3-triazol-4-yl)benzyl)furo[3,2-b]pyridine-5-carboxamide]
